This is an account of results in patent publication US9981940B2, “Aryl sulfide derivatives and aryl sulfoxide derivatives as acaricides and insecticides” (BAYER CROPSCIENCE AKTIENGESELLSCHAFT, priority 2013, dated 2018).

Molecules are shown by their SMILES.

One data set relates to Lucilia cuprina. The data set can be described thus: Lucilia cuprina test (LUCICU). The format is in vivo. To be noted: application rate of 100 ppm; L1 larvae; after 2 days. The protocol: Lucilia cuprina Test (LUCICU)
• Solvent: dimethyl sulphoxide
To prepare an appropriate active ingredient formulation, 10 mg of active ingredient are mixed with 0.5 ml of dimethyl sulphoxide, and the concentrate is diluted with water to the desired concentration.
About 20 L1 larvae of the Australian sheep blowfly (Lucilia cuprina) are transferred into a test vessel containing minced horsemeat and the active ingredient preparation of the desired concentration.
After 2 days, the kill in % is determined 100% means that all the larvae have been killed; 0% means that none of the larvae have been killed.

Data set [1] in a line: log P by HPLC (OECD Guideline 117), method [a] acidic range. The format is physicochemical. The following applies: for chromatographic logP: reversed-phase C18 HPLC column, acidic range; for logP[a]: HPLC, method [a] acidic range. The protocol:
(§1) The log P values were determined analogously to OECD Guideline 117 (EC Directive 92/69/EEC) by HPLC (high-performance liquid chromatography) using reversed-phase columns (C 18), by the following methods:
[a] The LC-MS determination in the acidic range is effected at pH 2.7 with 0.1% aqueous formic acid and acetonitrile (contains 0.1% formic acid) as eluents; linear gradient from 10% acetonitrile to 95% acetonitrile.

Data set [2] is described as follows: log P by HPLC (OECD Guideline 117), method [b] neutral range. The following applies: HPLC; for chromatographic logP: reversed-phase C18 HPLC column, neutral range, pH 7.8; for logP[b]: method [b] neutral range. The data set is classed as physicochemical. The protocol:
as §1
[b] The LC-MS determination in the neutral range is effected at pH 7.8 with 0.001 molar aqueous ammonium hydrogencarbonate solution and acetonitrile as eluents; linear gradient from 10% acetonitrile to 95% acetonitrile.

The next data set relates to Meloidogyne incognita. Nature of the data set: Meloidogyne incognita test (MELGIN). The data set is classed as in vivo. To be noted: application rate of 20 ppm; after 14 days, by formation of galls. How it is done: Meloidogyne Incognita Test (MELGIN)
• Solvent: 125.0 parts by weight of acetone
To produce an appropriate active ingredient formulation, 1 part by weight of active ingredient is mixed with the specified amounts of solvent and the concentrate is diluted to the desired concentration with water.
Vessels are filled with sand, active ingredient solution, an egg/larvae suspension of the southern root-knot nematode (Meloidogyne incognita) and lettuce seeds. The lettuce seeds germinate and the plants develop. The galls develop on the roots
After 14 days, the nematicidal efficacy in % is determined by the formation of galls. 100% means that no galls have been found; 0% means that the number of galls on the treated plants corresponds to the untreated control.

A further data set deals with Tetranychus urticae. The data set can be described thus: Tetranychus urticae spray test, OP-resistant (TETRUR). The format is in vivo. To be noted: application rate of 500 g/ha, after 6 days; for pest or weed control at 500 g/ha: Tetranychus urticae, 144 h, read-out: efficacy. An outline of the steps:
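Mortality as % efficacy (0% = no mites killed) read 6 days after spraying. Formulation: active ingredient in acetone/dimethylformamide plus emulsifier, diluted with emulsifier-containing water, applied to Phaseolus vulgaris leaf discs carrying every life stage of OP-resistant spider mites.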

The next data set concerns Phaedon cochleariae. Nature of the data set: Phaedon cochleariae spray test (PHAECO). The format is in vivo. The following applies: application rate of 500 g/ha, after 7 days. An outline of the steps: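 Chinese cabbage (Brassica pekinensis) leaf discs sprayed with acetone/DMF/emulsifier formulation diluted in emulsifier-containing water, dried, then populated with mustard beetle larvae. Efficacy scored after 7 days as % larvae killed (100% = all killed, 0% = none).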

For a further data set, the system named is Boophilus microplus. Nature of the data set: Boophilus microplus injection test (BOOPMI Inj). The format is in vivo. To be noted: application rate of 20 μg/animal, assessed after 7 days by laying of fertile eggs. An outline of the steps: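 Engorged adult female ticks (5 per test) injected in the abdomen with 1 μl of compound solution in DMSO, then held in a climate-controlled room. Efficacy scored after 7 days from fertile egg laying, with 100% meaning no fertile eggs and 0% all eggs fertile.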

Another data set has as its system Myzus persicae. The data set can be described thus: Myzus persicae spray test (MYZUPE). The data set is classed as in vivo. The following applies: after 6 days. How it is done:
Myzus persicae—Spray Test (MYZUPE)
• Solvent: 78 parts by weight of acetone • 1.5 parts by weight of dimethylformamide • Emulsifier: 0.5 part by weight of alkylaryl polyglycol ether
To produce an appropriate active ingredient formulation, 1 part by weight of active ingredient is mixed with the specified amounts of solvent and emulsifier, and the concentrate is diluted to the desired concentration with emulsifier-containing water.
Discs of Chinese cabbage leaves (Brassica pekinensis) infested by all stages of the green peach aphid (Myzus persicae) are sprayed with an active ingredient formulation of the desired concentration.
After 6 days, the activity in % is determined 100% means that all the aphids have been killed; 0% means that none of the aphids have been killed.

For another data set, the system named is Spodoptera frugiperda. The data set can be described thus: Spodoptera frugiperda spray test (SPODFR). To be noted: application rate of 500 g/ha; after 7 days. The data set is classed as in vivo. How it is done:
Spodoptera frugiperda—Spray Test (SPODFR)
• Solvent: 78.0 parts by weight of acetone • 1.5 parts by weight of dimethylformamide • Emulsifier: alkylaryl polyglycol ether
To produce an appropriate active ingredient formulation, 1 part by weight of active ingredient is dissolved using the specified parts by weight of solvent and made up with water containing an emulsifier concentration of 1000 ppm until the desired concentration is attained. To produce further test concentrations, the preparation is diluted with emulsifier-containing water.
Leaf discs of maize (Zea mays) are sprayed with an active ingredient formulation of the desired concentration and, after drying, populated with caterpillars of the armyworm (Spodoptera frugiperda).
After 7 days, the activity in % is determined 100% means that all caterpillars have been killed; 0% means that none of the caterpillars have been killed.

Setting [3] is: pH 2.7, HPLC method [a], read-out: logP[a].
Setting [4] is: pH 2.7, HPLC, pH 2.7, read-out: log P[a].

On to `Cc1cc(F)c(-n2ncn(C(C)C)c2=O)cc1SCC(F)(F)F` [Example 4, 2-{2-Fluoro-4-methyl-5-[(2,2,2-trifluoroethyl)sulphanyl]phenyl}-4-isopropyl-2,4-dihydro-3H-1,2,4-triazol-3-one], for which the “efficacy (kill)” value in the data set with Lucilia cuprina is 80%. Besides, the chromatographic logP in data set [1] (setting [3]) stood at 2.82; in [1] (setting [4]) it was 2.82; in data set [2], 2.97. The compound further yielded a nematicidal efficacy in the data set with Meloidogyne incognita of 90%. The pest or weed control at 500 g/ha in the data set on Tetranychus urticae was 90%.

Consider `COc1nn(-c2cc([S+]([O-])CC(F)(F)F)c(Cl)cc2Cl)c(=O)n1C1CC1` (centres unmarked) [Example 106], for which, in [1], the “logP[a]” value worked out at 2.65. For the same compound, the “logP[b]” value in [2] came out at 2.61. In the data set on Meloidogyne incognita, the nematicidal efficacy is 90%. Besides, the efficacy in the data set on Phaedon cochleariae, in the data set with Tetranychus urticae and in the data set on Boophilus microplus was 100% throughout.

With `COC1=CC(=O)N(c2cc([S+]([O-])CC(F)(F)F)c(C)cc2F)C1` (centres unmarked) [Example 311, 1-{2-Fluoro-4-methyl-5-[(2,2,2-trifluoroethyl)sulphinyl]phenyl}-4-methoxy-1,5-dihydro-2H-pyrrol-2-one], the chromatographic logP in data set [1] (setting [3]) is 1.83; in data set [1] (setting [4]), 1.83; in [2], 1.84. Moreover, the efficacy with Myzus persicae (application rate of 500 g/ha) is recorded as 90%; in the data set with Boophilus microplus, 100%. For the same compound, the pest or weed control at 500 g/ha with Phaedon cochleariae (Phaedon cochleariae, 168 h, read-out: efficacy) stood at 100%; in the data set on Tetranychus urticae it was 100%.

As to `COC1=CC(=O)N(c2ccc(C#N)c(SCC(F)(F)F)c2)C1` [Example 320], the “logP[a]” value in data set [1] was 2.45. In addition, in data set [2], the “logP[b]” value came out at 2.43. Also, the efficacy in the data set on Myzus persicae (application rate of 500 g/ha) was determined as 90%; with Phaedon cochleariae, 100%.

As to `CCCn1c(OC)nn(-c2cc([S+]([O-])CC(F)(F)F)c(C)cc2F)c1=O` (centres unmarked) [Example 411], the “logP[a]” value in data set [1] was found to be 2.44. Further, the “logP[b]” value in data set [2] came to 2.41. In addition, the efficacy in the data set on Myzus persicae (application rate of 100 g/ha) is reported as 90%; in the data set with Spodoptera frugiperda it was 100%; in the data set with Phaedon cochleariae it was 100%; in the data set on Tetranychus urticae it was 100%; in the data set with Boophilus microplus, 100%.

`C=CCn1c([S+]([O-])CCC)nn(-c2cc([S+]([O-])CC(F)(F)F)c(C)cc2F)c1=O` (centres unmarked) [Example 423]: in [1], the “logP[a]” value worked out at 2.34. In addition, in [2], the “logP[b]” value is 2.37. Moreover, the efficacy in the data set on Myzus persicae (application rate of 500 g/ha) came to 90%; with Tetranychus urticae, 90%; in the data set with Boophilus microplus, 100%.
